The source of these data is patent US5525626A (priority 1989, dated 1996).

The test system of data set [1] is LNCap cells. Briefly: cell growth in combination with testosterone. Format: cell-based, human. The following applies: FIG. 9.
Data set [2] relates to malignant cell growth. To be noted: cited from earlier work.
In data set [3] the test system is U 178 MG, TP 410 N, TP 242 MG, TP 336 MG and A 431 cells. To be noted: coumarin in the corresponding concentrations. The method, then:
(§1) The neuroblastoma cell line and the three glioblastoma cell lines were cultivated in Ham's F10 medium enriched with 10% fetal calf serum (FCS) and the usual quantity of penicillin, streptomycin (Pen/Strep) and glutamine. The epidermoidal cell line was cultivated in modified Eagle's Medium (MEM), likewise enriched with 10% (FCS) and the usual quantity of glutamine and Pen/Strep.
Untreated cells served as a control. Subsequently, the cells were incubated for 8 hours with ^3 H-thymidine. The radioactivity absorbed by the cells was measured in the usual way.

The test system is the same in data set [4]. Briefly: growth curves of five tumor cell lines, comparison with coumarin. The following applies: corresponding concentrations, up to 12 days. Format: cell-based, human. The method, then: as §1
In each case 5×10^4 cells were plated out in T25 bottles, the untreated cells being incubated in analogous conditions as control. The cell count was microscopically determined after 3, 5, 7, 10 and 12 days.

Data set [5] relates to T4 lymphocytes. The following applies: low concentrations; cited from earlier work.

As to `O=c1oc2ccccc2cc1O` [3-OH-1,2-BP, reference compound], the “effect on cell growth, comparison compound” value in data set [1] is given as “essentially ineffective”.
For the molecule `O=c1ccc2ccccc2o1` [coumarin, 1,2-Benzopyrone, reference compound], the malignant cell growth entry in data set [2] (cell cultures and animal experiments) was “inhibits malignant cell growth in cell cultures and in animal experiments”. Further, the side-effects in mammals result in data set [2] (compared with biological activity) is “side-effects in the case of mammals are to be disregarded compared with biological activity”. The “difference from control in pre-trial” value in data set [3] is given as “no significant difference could be observed”. Besides, in data set [4], the “growth-inhibiting activity (growth curve) versus control” value is listed as “no significant difference could be observed”.
In the case of `O=P1(N(CCCl)CCCl)NCCCO1` (stereo not drawn) [cyclophosphamide], the “biological activity of T4 lymphocytes” value in data set [5] is reported as “inhibits the biological activity of T4 lymphocytes”.
